Data: ChEMBL document CHEMBL1201862, “PubChem BioAssay data set” (2004)
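Briefly, cells in 96-well plates were exposed to five compound concentrations for 48 h, and endpoints were estimated by linear interpolation. Here, GI50 denotes the concentration required for 50% inhibition of growth.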 The source made the active and inactive calls. No stated cut-off is given here; in the data, active = GI50 up to about 1.1 µM and inactive = higher.

Legend:
Test in all cases: growth of human tumour cells (NCI), 48 h
A498 = system: A498
A549 = system: A549
CAKI-1 = system: CAKI-1
CCRF-CEM = system: CCRF-CEM
HL-60 = system: HL-60
HOP-92 = system: HOP-92
MOLT-4 = system: MOLT-4
Malme-3M = system: Malme-3M
NCI-H460 = system: NCI-H460
RPMI-8226 = system: RPMI-8226
SF-295 = system: SF-295
SF-539 = system: SF-539
SK-MEL-5 = system: SK-MEL-5
SNB-75 = system: SNB-75
SW-620 = system: SW-620
UACC-62 = system: UACC-62
NCI-H23 = system: NCI-H23

Structure (SMILES) | GI50 (A498) | GI50 (A549) | GI50 (CAKI-1) | GI50 (CCRF-CEM) | GI50 (HL-60) | GI50 (HOP-92) | GI50 (MOLT-4) | GI50 (Malme-3M) | GI50 (NCI-H460) | GI50 (RPMI-8226) | GI50 (SF-295) | GI50 (SF-539) | GI50 (SK-MEL-5) | GI50 (SNB-75) | GI50 (SW-620) | GI50 (UACC-62) | GI50 (NCI-H23)
CC(=O)c1ccc2c(c1)c1c(C)c3c[n+](C)ccc3c(C)c1n2C | 6.41 µM (inactive) | 13.9 µM (inactive) | 6.92 µM (inactive) | 3.76 µM (inactive) | 8.75 µM (inactive) | 11.8 µM (inactive) | 0.641 µM (active) | 10.4 µM (inactive) | 2.76 µM (inactive) | 3.84 µM (inactive) | 0.885 µM (active) | 2.37 µM (inactive) | 4.73 µM (inactive) | 7.48 µM (inactive) | 1.03 µM (active) | 1.87 µM (inactive) | –
Cc1nc(N)nn1C1OCC(O)C(O)C1O (stereo not given) | > 100 µM (inactive) | > 100 µM (inactive) | > 100 µM (inactive) | > 100 µM (inactive) | > 100 µM (inactive) | – | > 100 µM (inactive) | > 100 µM (inactive) | > 100 µM (inactive) | > 100 µM (inactive) | > 100 µM (inactive) | > 100 µM (inactive) | > 100 µM (inactive) | 93.5 µM (inactive) | > 100 µM (inactive) | > 100 µM (inactive) | > 100 µM (inactive)
O=C(/C=C/c1ccccc1O)c1cccs1 | 11.9 µM (inactive) | > 100 µM (inactive) | > 100 µM (inactive) | > 100 µM (inactive) | > 100 µM (inactive) | – | > 100 µM (inactive) | > 100 µM (inactive) | > 100 µM (inactive) | – | > 100 µM (inactive) | > 100 µM (inactive) | > 100 µM (inactive) | > 100 µM (inactive) | > 100 µM (inactive) | > 100 µM (inactive) | > 100 µM (inactive)
C/C(=C\c1ccccc1)C(O)C(=O)c1nc2ccc(Cl)cc2nc1O (stereo not given) | > 100 µM (inactive) | > 100 µM (inactive) | > 100 µM (inactive) | 13.6 µM (inactive) | 27 µM (inactive) | – | 48.3 µM (inactive) | > 100 µM (inactive) | > 100 µM (inactive) | 12.5 µM (inactive) | > 100 µM (inactive) | > 100 µM (inactive) | > 100 µM (inactive) | – | > 100 µM (inactive) | > 100 µM (inactive) | > 100 µM (inactive)
O=C(c1ccccc1)c1c(CC(O)c2cccnc2)n(C(=O)c2ccccc2)c2ccccc12 (stereo not given) | – | 29.4 µM (inactive) | 26.4 µM (inactive) | 22.5 µM (inactive) | 21.5 µM (inactive) | 15 µM (inactive) | 17.9 µM (inactive) | 23.8 µM (inactive) | 16.9 µM (inactive) | 15.8 µM (inactive) | 17.4 µM (inactive) | 16.6 µM (inactive) | 16.9 µM (inactive) | 3.72 µM (inactive) | 26.6 µM (inactive) | 16.5 µM (inactive) | 16.5 µM (inactive)
O=C1c2ccccc2C(=O)N1CCn1nc(-c2ccccc2)cc(-c2ccccc2)c1=O | – | 61.5 µM (inactive) | – | 23.2 µM (inactive) | 8.51 µM (inactive) | 37.8 µM (inactive) | 26.4 µM (inactive) | > 100 µM (inactive) | 26.2 µM (inactive) | 5.41 µM (inactive) | 56 µM (inactive) | > 100 µM (inactive) | 52.5 µM (inactive) | 46.7 µM (inactive) | > 100 µM (inactive) | 51.2 µM (inactive) | 43.2 µM (inactive)
COc1cccc(-c2nccc3c(OCc4ccccc4)c(OC)c(OC)cc23)c1 | > 100 µM (inactive) | > 100 µM (inactive) | – | 5.68 µM (inactive) | 4.25 µM (inactive) | > 100 µM (inactive) | 5.53 µM (inactive) | 2.94 µM (inactive) | – | 7.08 µM (inactive) | > 100 µM (inactive) | > 100 µM (inactive) | 8.97 µM (inactive) | > 100 µM (inactive) | > 100 µM (inactive) | > 100 µM (inactive) | 4.09 µM (inactive)
COc1cc2ccc3c4c(OC)cc(OC)c(OC)c4c([O-])[n+](C)c3c2cc1OC | 3.76 µM (inactive) | 4.01 µM (inactive) | > 20.6 µM (inactive) | – | 1.33 µM (inactive) | 12 µM (inactive) | 1.67 µM (inactive) | 17.5 µM (inactive) | – | 0.368 µM (active) | 4.47 µM (inactive) | > 32.7 µM (inactive) | 9.02 µM (inactive) | 11.8 µM (inactive) | – | 25.1 µM (inactive) | 10.1 µM (inactive)
CNC(C)Cc1ccc(O)cc1 (stereo not given) | > 100 µM (inactive) | > 100 µM (inactive) | > 100 µM (inactive) | > 100 µM (inactive) | > 100 µM (inactive) | > 100 µM (inactive) | > 100 µM (inactive) | > 100 µM (inactive) | > 100 µM (inactive) | > 100 µM (inactive) | > 100 µM (inactive) | > 100 µM (inactive) | > 100 µM (inactive) | > 100 µM (inactive) | > 100 µM (inactive) | > 100 µM (inactive) | > 100 µM (inactive)
CC(=O)NNc1nc(C)c(C(=O)NNC(=O)C(=O)Nc2ccc(Cl)cc2)s1 | – | > 100 µM (inactive) | – | 25.3 µM (inactive) | > 100 µM (inactive) | 39.5 µM (inactive) | 37.4 µM (inactive) | > 100 µM (inactive) | > 100 µM (inactive) | > 100 µM (inactive) | > 100 µM (inactive) | > 100 µM (inactive) | > 100 µM (inactive) | – | 54.6 µM (inactive) | > 100 µM (inactive) | > 100 µM (inactive)
COCCOCCOCCOc1cccc2c1C(=O)c1cccc(OCCOCCOCCOC)c1C2=O | > 100 µM (inactive) | > 100 µM (inactive) | > 100 µM (inactive) | 40.1 µM (inactive) | > 100 µM (inactive) | > 100 µM (inactive) | 71.8 µM (inactive) | – | 70.6 µM (inactive) | 65.3 µM (inactive) | > 100 µM (inactive) | > 100 µM (inactive) | 81.5 µM (inactive) | > 100 µM (inactive) | > 100 µM (inactive) | > 100 µM (inactive) | > 100 µM (inactive)
CCCn1cc2c(SC)nc(SC)nc2n1 | > 100 µM (inactive) | > 100 µM (inactive) | > 100 µM (inactive) | > 100 µM (inactive) | > 100 µM (inactive) | > 100 µM (inactive) | > 100 µM (inactive) | > 100 µM (inactive) | > 100 µM (inactive) | > 100 µM (inactive) | > 100 µM (inactive) | > 100 µM (inactive) | > 100 µM (inactive) | > 100 µM (inactive) | > 100 µM (inactive) | – | > 100 µM (inactive)
O=C1C(=O)N(c2cc(Cl)ccc2Cl)C(=O)C(=O)C1c1nc2ccccc2o1 | > 100 µM (inactive) | > 100 µM (inactive) | > 100 µM (inactive) | 30.2 µM (inactive) | 39.1 µM (inactive) | > 100 µM (inactive) | 30.1 µM (inactive) | > 100 µM (inactive) | > 100 µM (inactive) | > 100 µM (inactive) | > 100 µM (inactive) | > 100 µM (inactive) | > 100 µM (inactive) | > 67.6 µM (inactive) | > 100 µM (inactive) | > 100 µM (inactive) | > 100 µM (inactive)
C1=CC(=NN=P(c2ccccc2)(c2ccccc2)c2ccccc2)C=C1 | – | > 100 µM (inactive) | > 100 µM (inactive) | > 100 µM (inactive) | 98.2 µM (inactive) | 55.2 µM (inactive) | > 100 µM (inactive) | > 100 µM (inactive) | > 100 µM (inactive) | > 100 µM (inactive) | – | – | > 100 µM (inactive) | > 100 µM (inactive) | > 100 µM (inactive) | > 100 µM (inactive) | > 100 µM (inactive)
CN(C)/C(=N\C#N)N(Cc1ccccc1)Cc1ccccc1 | 49 µM (inactive) | > 100 µM (inactive) | > 100 µM (inactive) | 44.2 µM (inactive) | 44.3 µM (inactive) | 36.3 µM (inactive) | – | > 100 µM (inactive) | 17.7 µM (inactive) | 32.5 µM (inactive) | 68.4 µM (inactive) | > 100 µM (inactive) | > 100 µM (inactive) | > 100 µM (inactive) | 17.9 µM (inactive) | 62.4 µM (inactive) | > 100 µM (inactive)
Nc1ccc(/N=N/c2ccc(/C=C/c3ccc(/N=N/c4ccc(N)c5ccc(S(=O)(=O)O)cc45)cc3S(=O)(=O)O)c(S(=O)(=O)O)c2)c2cc(S(=O)(=O)O)ccc12 | > 100 µM (inactive) | > 100 µM (inactive) | – | > 100 µM (inactive) | > 100 µM (inactive) | 88.1 µM (inactive) | > 100 µM (inactive) | > 100 µM (inactive) | > 100 µM (inactive) | > 100 µM (inactive) | > 100 µM (inactive) | > 100 µM (inactive) | > 100 µM (inactive) | 56.2 µM (inactive) | > 100 µM (inactive) | > 100 µM (inactive) | > 100 µM (inactive)
c1ccc(N2N=C(c3ccco3)CC2c2ccco2)cc1 (stereo not given) | – | > 100 µM (inactive) | – | 42.3 µM (inactive) | 25.2 µM (inactive) | – | 20.5 µM (inactive) | > 100 µM (inactive) | 66.1 µM (inactive) | 35.2 µM (inactive) | 57.1 µM (inactive) | > 100 µM (inactive) | 51.4 µM (inactive) | 22.3 µM (inactive) | > 100 µM (inactive) | 91.6 µM (inactive) | 66.5 µM (inactive)
O=C1c2cc3c(cc2[C@@H]2C(O)[C@H]4O[C@H]4C4CCN1C42)OCO3 (stereo not given in full) | – | > 37.5 µM (inactive) | 25.3 µM (inactive) | > 37.5 µM (inactive) | > 37.5 µM (inactive) | > 37.5 µM (inactive) | > 37.5 µM (inactive) | > 37.5 µM (inactive) | > 37.5 µM (inactive) | > 37.5 µM (inactive) | > 37.5 µM (inactive) | > 37.5 µM (inactive) | – | – | > 37.5 µM (inactive) | > 37.5 µM (inactive) | –
